From PubChem BioAssay (NCI)
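Cultured in 96-well plates, cells were exposed to test compound for 48 hours across five concentrations. TGI: concentration producing complete growth inhibition.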

What was measured:
Test in all cases: NCI anticancer screen, dose series, 48 h
MDA-N = tested on: MDA-N
MALME-3M melanoma = tested on: MALME-3M melanoma
OVCAR-8 ovarian = tested on: OVCAR-8 ovarian
LOX IMVI melanoma = tested on: LOX IMVI melanoma
RXF 393 renal = tested on: RXF 393 renal
A498 renal = tested on: A498 renal
ACHN renal = tested on: ACHN renal
DU-145 prostate = tested on: DU-145 prostate
RPMI-8226 leukemia = tested on: RPMI-8226 leukemia
NCI-H522 lung = tested on: NCI-H522 lung
OVCAR-4 ovarian = tested on: OVCAR-4 ovarian
M14 melanoma = tested on: M14 melanoma
SNB-19 CNS = tested on: SNB-19 CNS
PC-3 prostate = tested on: PC-3 prostate
UACC-257 melanoma = tested on: UACC-257 melanoma
MDA-MB-231 breast = tested on: MDA-MB-231 breast
NCI-H460 lung = tested on: NCI-H460 lung
OVCAR-3 ovarian = tested on: OVCAR-3 ovarian
SK-MEL-5 melanoma = tested on: SK-MEL-5 melanoma
MDA-MB-435 = tested on: MDA-MB-435
COLO 205 colon = tested on: COLO 205 colon
OVCAR-5 ovarian = tested on: OVCAR-5 ovarian
SK-OV-3 ovarian = tested on: SK-OV-3 ovarian
U251 CNS = tested on: U251 CNS
NCI-H226 lung = tested on: NCI-H226 lung
MOLT-4 leukemia = tested on: MOLT-4 leukemia
EKVX NSCLC = tested on: EKVX NSCLC
SF-539 CNS = tested on: SF-539 CNS
SN12C renal = tested on: SN12C renal
SK-MEL-2 melanoma = tested on: SK-MEL-2 melanoma
HT29 colon = tested on: HT29 colon
SR leukemia = tested on: SR leukemia
MCF7 breast = tested on: MCF7 breast
HCT-15 colon = tested on: HCT-15 colon
HL-60(TB) leukemia = tested on: HL-60(TB) leukemia
T-47D breast = tested on: T-47D breast
HS 578T breast = tested on: HS 578T breast
HCT-116 colon = tested on: HCT-116 colon
NCI/ADR-RES ovarian = tested on: NCI/ADR-RES ovarian
NCI-H23 lung = tested on: NCI-H23 lung
CAKI-1 renal = tested on: CAKI-1 renal
HOP-92 NSCLC = tested on: HOP-92 NSCLC
KM12 colon = tested on: KM12 colon
IGROV1 ovarian = tested on: IGROV1 ovarian
CCRF-CEM leukemia = tested on: CCRF-CEM leukemia
SF-295 CNS = tested on: SF-295 CNS
SW-620 colon = tested on: SW-620 colon
HOP-62 NSCLC = tested on: HOP-62 NSCLC
HCC-2998 colon = tested on: HCC-2998 colon
A549 NSCLC = tested on: A549 NSCLC
UO-31 renal = tested on: UO-31 renal
SF-268 CNS = tested on: SF-268 CNS
TK-10 renal = tested on: TK-10 renal
SK-MEL-28 melanoma = tested on: SK-MEL-28 melanoma
K-562 leukemia = tested on: K-562 leukemia
UACC-62 melanoma = tested on: UACC-62 melanoma
786-0 renal = tested on: 786-0 renal
SNB-75 CNS = tested on: SNB-75 CNS

Compound: CN(C)C(=O)NCCN1CCCCCc2ccccc21
- TGI (MDA-N): > 100 µM
- TGI (MALME-3M melanoma): > 100 µM
- TGI (OVCAR-8 ovarian): > 100 µM
- TGI (LOX IMVI melanoma): > 100 µM
- TGI (RXF 393 renal): > 100 µM
- TGI (A498 renal): > 100 µM
- TGI (ACHN renal): > 100 µM
- TGI (DU-145 prostate): > 100 µM
- TGI (RPMI-8226 leukemia): > 100 µM
- TGI (NCI-H522 lung): > 100 µM
- TGI (OVCAR-4 ovarian): > 100 µM
- TGI (M14 melanoma): > 100 µM
- TGI (SNB-19 CNS): > 100 µM
- TGI (PC-3 prostate): > 100 µM
- TGI (UACC-257 melanoma): > 100 µM
- TGI (MDA-MB-231 breast): > 100 µM
- TGI (NCI-H460 lung): > 100 µM
- TGI (OVCAR-3 ovarian): > 100 µM
- TGI (SK-MEL-5 melanoma): 71.9 µM
- TGI (MDA-MB-435): > 100 µM
- TGI (COLO 205 colon): > 100 µM
- TGI (OVCAR-5 ovarian): > 100 µM
- TGI (SK-OV-3 ovarian): > 100 µM
- TGI (U251 CNS): > 100 µM
- TGI (NCI-H226 lung): > 100 µM
- TGI (MOLT-4 leukemia): > 100 µM
- TGI (EKVX NSCLC): > 100 µM
- TGI (SF-539 CNS): > 100 µM
- TGI (SN12C renal): > 100 µM
- TGI (SK-MEL-2 melanoma): > 100 µM
- TGI (HT29 colon): > 100 µM
- TGI (SR leukemia): > 100 µM
- TGI (MCF7 breast): > 100 µM
- TGI (HCT-15 colon): > 100 µM
- TGI (HL-60(TB) leukemia): > 100 µM
- TGI (T-47D breast): > 100 µM
- TGI (HS 578T breast): > 100 µM
- TGI (HCT-116 colon): > 100 µM
- TGI (NCI/ADR-RES ovarian): > 100 µM
- TGI (NCI-H23 lung): > 100 µM
- TGI (CAKI-1 renal): > 100 µM
- TGI (HOP-92 NSCLC): > 100 µM
- TGI (KM12 colon): > 100 µM
- TGI (IGROV1 ovarian): > 100 µM
- TGI (CCRF-CEM leukemia): > 100 µM
- TGI (SF-295 CNS): > 100 µM
- TGI (SW-620 colon): > 100 µM
- TGI (HOP-62 NSCLC): > 100 µM
- TGI (HCC-2998 colon): > 100 µM
- TGI (A549 NSCLC): > 100 µM
- TGI (UO-31 renal): > 100 µM
- TGI (SF-268 CNS): > 100 µM
- TGI (TK-10 renal): > 100 µM
- TGI (SK-MEL-28 melanoma): > 100 µM
- TGI (K-562 leukemia): > 100 µM
- TGI (UACC-62 melanoma): > 100 µM

Compound: COc1ccc(C[N+]23C(CC[C@H]2c2ccccc2)CC[C@H]3c2ccccc2)cc1 (some centres not stated)
- TGI (MDA-N): 65.4 µM
- TGI (MALME-3M melanoma): 30.8 µM
- TGI (OVCAR-8 ovarian): > 100 µM
- TGI (LOX IMVI melanoma): 44.7 µM
- TGI (RXF 393 renal): 35.3 µM
- TGI (A498 renal): > 100 µM
- TGI (ACHN renal): > 100 µM
- TGI (786-0 renal): > 100 µM
- TGI (DU-145 prostate): 77.8 µM
- TGI (RPMI-8226 leukemia): 27 µM
- TGI (NCI-H522 lung): 45.4 µM
- TGI (OVCAR-4 ovarian): 84.1 µM
- TGI (M14 melanoma): 42.4 µM
- TGI (SNB-19 CNS): > 100 µM
- TGI (PC-3 prostate): 92.1 µM
- TGI (UACC-257 melanoma): 50.5 µM
- TGI (MDA-MB-231 breast): 82.4 µM
- TGI (OVCAR-3 ovarian): 37 µM
- TGI (SK-MEL-5 melanoma): 15.7 µM
- TGI (MDA-MB-435): 26.4 µM
- TGI (COLO 205 colon): 21.4 µM
- TGI (OVCAR-5 ovarian): > 100 µM
- TGI (SK-OV-3 ovarian): 87.7 µM
- TGI (U251 CNS): > 100 µM
- TGI (NCI-H226 lung): 55 µM
- TGI (MOLT-4 leukemia): 90.1 µM
- TGI (EKVX NSCLC): 69.8 µM
- TGI (SN12C renal): > 100 µM
- TGI (SK-MEL-2 melanoma): 43 µM
- TGI (HT29 colon): > 100 µM
- TGI (SR leukemia): 41.4 µM
- TGI (MCF7 breast): 78.9 µM
- TGI (HL-60(TB) leukemia): 24.7 µM
- TGI (T-47D breast): 61.5 µM
- TGI (HS 578T breast): > 100 µM
- TGI (HCT-116 colon): > 100 µM
- TGI (CAKI-1 renal): > 100 µM
- TGI (HOP-92 NSCLC): 39.5 µM
- TGI (KM12 colon): 24.4 µM
- TGI (IGROV1 ovarian): 36.5 µM
- TGI (CCRF-CEM leukemia): > 100 µM
- TGI (SF-295 CNS): 61.7 µM
- TGI (SNB-75 CNS): 54.1 µM
- TGI (SW-620 colon): > 100 µM
- TGI (HOP-62 NSCLC): 67.3 µM
- TGI (A549 NSCLC): > 100 µM
- TGI (UO-31 renal): > 100 µM
- TGI (SF-268 CNS): > 100 µM
- TGI (TK-10 renal): > 100 µM
- TGI (SK-MEL-28 melanoma): > 100 µM
- TGI (K-562 leukemia): > 100 µM
